Results: patent US4027039A (priority 1975, dated 1977)
Values joined by “and” are separate entries in the source; they are usually repeats but may differ in a detail not shown here. Equal values may be shown once. Read-outs that look alike come from different tables or passages of the source.

How the values were obtained:
Columbia SK Polio virus = type: in vivo, mouse
Vaccinia virus = type: in vivo, rabbit; conditions: rabbit, in vivo; thiosemicarbazone
Vaccinia IHD virus = type: in vivo, mouse
Herpes virus [1] = system: Herpes virus
Influenza PR 8 virus [2] = assay: Influenza PR 8 in mice, intravenous (Table 31); type: in vivo, mouse; conditions: total dose .2 μg
viral infections = assay: Antiviral screening in animals, general statements; conditions: mouse, in vivo
Influenza PR 8 virus [3] = assay: Influenza PR 8 in mice, oral; schedule by table; late read day 6 (Table 37), 7 (33, 36), 8 (32, 35, 47), 10 (38); control fraction 18/20 (Table 32), 19/20 (Table 35), else 100%; type: in vivo, mouse
Influenza PR 8 virus [4] = assay: Influenza PR 8 in mice, drug in drinking water (Table 34); type: in vivo, mouse
Herpes virus [5] = assay: Herpes virus in chicken eggs, single dose 24 hours pre-infection; type: in vivo, chick embryo
Influenza PR 8 virus [6] = assay: Influenza PR 8 in mice, subcutaneous; late read day 6 (Table 37), 8 (Table 47); type: in vivo, mouse
[7] = total dose .000005 μg, thiosemicarbazone
[8] = total dose .00005 μg, listed as 2-butanone thiosemicarbazone
[9] = total dose .00005 μg, thiosemicarbazone

CCC(C)=NNC(N)=S [2-Butanone, thiosemicarbazone, 2-butanone, thiosemicarbazone]
No. animals surviving after 5 days (Columbia SK Polio virus; total dose 3 ng): 7 | Survivors (Columbia SK Polio virus; total dose 3 ng): 0 | No. animals surviving after 5 days (Columbia SK Polio virus; total dose 30 ng): 8 | Survivors (Columbia SK Polio virus; total dose 30 ng): 0 | No. animals surviving after 5 days (Columbia SK Polio virus; total dose 300 ng): 6 | Survivors (Columbia SK Polio virus; total dose 300 ng): 1 | effect on pox formation (Vaccinia virus): variable | Statistical Significance of Tail Lesions (Vaccinia IHD virus; 10 ng, day 5): < .05 | Statistical Significance of Tail Lesions (Vaccinia IHD virus; 10 ng, day 6): < .01 | Statistical Significance of Tail Lesions (Vaccinia IHD virus; 10 ng, day 7): < .05 | Statistical Significance of Tail Lesions (Vaccinia IHD virus; 10 ng, day 10): < .01 | Statistical Significance of Tail Lesions (Vaccinia IHD virus; 10 ng, day 11): < .01 | Statistical Significance of Tail Lesions (Vaccinia IHD virus; 10 ng, day 12): < .01 | Statistical Significance of Tail Lesions (Vaccinia IHD virus; 10 ng, day 14): < .01 | Statistical Significance of Tail Lesions (Vaccinia IHD virus; 10 ng, day 17): < .01 | Statistical Significance of Tail Lesions (Vaccinia IHD virus; 10 ng, day 21): < .01 | Statistical Significance of Tail Lesions (Vaccinia IHD virus; 1 μg, day 5): < .01 | Statistical Significance of Tail Lesions (Vaccinia IHD virus; 1 μg, day 6): < .01 | Statistical Significance of Tail Lesions (Vaccinia IHD virus; 1 μg, day 7): < .05 | Statistical Significance of Tail Lesions (Vaccinia IHD virus; 1 μg, day 8): < .01 | Statistical Significance of Tail Lesions (Vaccinia IHD virus; 1 μg, day 10): < .01 | Statistical Significance of Tail Lesions (Vaccinia IHD virus; 1 μg, day 11): < .01 | Statistical Significance of Tail Lesions (Vaccinia IHD virus; 1 μg, day 12): < .01 | Statistical Significance of Tail Lesions (Vaccinia IHD virus; 1 μg, day 14): < .01 | Statistical Significance of Tail Lesions (Vaccinia IHD virus; 1 μg, day 17): < .01 | Statistical Significance of Tail Lesions (Vaccinia IHD virus; 1 μg, day 21): < .01 | Statistical Significance of Tail Lesions (Vaccinia IHD virus; 10 [μg], day 6): < .01 | Statistical Significance of Tail Lesions (Vaccinia IHD virus; 10 [μg], day 7): < .05 | Statistical Significance of Tail Lesions (Vaccinia IHD virus; 10 [μg], day 8): < .05 | Statistical Significance of Tail Lesions (Vaccinia IHD virus; 10 [μg], day 10): < .01 | Statistical Significance of Tail Lesions (Vaccinia IHD virus; 10 [μg], day 11): < .05 | Statistical Significance of Tail Lesions (Vaccinia IHD virus; 10 [μg], day 12): < .05 | Statistical Significance of Tail Lesions (Vaccinia IHD virus; 10 [μg], day 14): < .05 | Statistical Significance of Tail Lesions (Vaccinia IHD virus; 10 [μg], day 17): < .01 | Statistical Significance of Tail Lesions (Vaccinia IHD virus; 10 [μg], day 21): < .01 | Statistical Significance of Tail Lesions (Vaccinia IHD virus; 100 [ng], day 5): < .05 | Statistical Significance of Tail Lesions (Vaccinia IHD virus; 100 [ng], day 6): < .01 | Statistical Significance of Tail Lesions (Vaccinia IHD virus; 100 [ng], day 7): < .01 | Statistical Significance of Tail Lesions (Vaccinia IHD virus; 100 [ng], day 8): < .01 | Statistical Significance of Tail Lesions (Vaccinia IHD virus; 100 [ng], day 10): < .01 | Statistical Significance of Tail Lesions (Vaccinia IHD virus; 100 [ng], day 11): < .01 | Statistical Significance of Tail Lesions (Vaccinia IHD virus; 100 [ng], day 12): < .01 | Statistical Significance of Tail Lesions (Vaccinia IHD virus; 100 [ng], day 14): < .01 | Statistical Significance of Tail Lesions (Vaccinia IHD virus; 100 [ng], day 17): < .01 | Statistical Significance of Tail Lesions (Vaccinia IHD virus; 100 [ng], day 21): < .01 | activity in words (Vaccinia IHD virus; mouse, in vivo): most active of the compounds tested | Survivors (Herpes virus [1]; mouse, in vivo): 2 | No. animals surviving after 6-9 days (Herpes virus [1]; total dose .000005 μg): 1 | No. animals surviving when 100% (or given fraction) of controls are dead (Herpes virus [1]; total dose .000005 μg): 0 | Survivors (Herpes virus [1]; total dose .000005 μg): 0 | No. animals surviving after 6-9 days (Herpes virus [1]; total dose .00005 μg): 8 | No. animals surviving when 100% (or given fraction) of controls are dead (Herpes virus [1]; total dose .00005 μg): 4 | No. animals surviving after 6-9 days (Herpes virus [1]; total dose .0005 μg): 6 | No. animals surviving when 100% (or given fraction) of controls are dead (Herpes virus [1]; total dose .0005 μg): 5 | Survivors (Herpes virus [1]; total dose .0005 μg): 4 | No. animals surviving after 6-9 days (Herpes virus [1]; total dose .005 μg): 4 | No. animals surviving when 100% (or given fraction) of controls are dead (Herpes virus [1]; total dose .05 μg): 0 | Survivors (Herpes virus [1]; total dose .05 μg): 0 | No. animals surviving when 18/20 of controls are dead (Influenza PR 8 virus [2]): 2 | Survivors (Influenza PR 8 virus [2]): 2 | activity in words (viral infections): one of the most active compounds | No. animals surviving after 6-10 days (Influenza PR 8 virus [3]; total dose .000005 μg): 6 | Survivors (Influenza PR 8 virus [3]; total dose .000005 μg): 0 | No. animals surviving after 6-10 days (Influenza PR 8 virus [3]; [7]): 4 | No. animals surviving when 100% (or given fraction) of controls are dead (Influenza PR 8 virus [3]; [7]): 2 | Survivors (Influenza PR 8 virus [3]; [7]): 1 | Survivors (Influenza PR 8 virus [3]; total dose .00005 μg): 4 | No. animals surviving after 6-10 days (Influenza PR 8 virus [3]; [8]): 5 | Survivors (Influenza PR 8 virus [3]; [8]): 2 | No. animals surviving after 6-10 days (Influenza PR 8 virus [3]; [9]): 8 and 4 | No. animals surviving when 100% (or given fraction) of controls are dead (Influenza PR 8 virus [3]; [9]): 4 | No. animals surviving after 6-10 days (Influenza PR 8 virus [3]; total dose .0005 μg): 2 | No. animals surviving when 100% (or given fraction) of controls are dead (Influenza PR 8 virus [3]; total dose .0005 μg): 1 | Survivors (Influenza PR 8 virus [3]; total dose .0005 μg): 1 | No. animals surviving after 6-10 days (Influenza PR 8 virus [3]; total dose .005 μg): 2 | No. animals surviving when 100% (or given fraction) of controls are dead (Influenza PR 8 virus [3]; total dose .005 μg): 1 | Survivors (Influenza PR 8 virus [3]; total dose .005 μg): 1 | Survivors (Influenza PR 8 virus [3]; total dose .005 μg, thiosemicarbazone): 0 | Survivors (Influenza PR 8 virus [4]; 0.5 Mg/ml in water, 24 h pre and 24 h post): 1 | Survivors (Influenza PR 8 virus [4]; 10 Mg/ml in water, 24 h pre and 24 h post): 2 | Survivors (Influenza PR 8 virus [4]; 24 h post-infection only, first of two printed columns): 0 | Deaths on day 1 (Herpes virus [5]; 2 μg): 1 | Deaths on day 2 (Herpes virus [5]; 2 μg): 5 | Deaths on day 3 (Herpes virus [5]; 2 μg): 3 | No. dying 5-22 day (Herpes virus [5]; 2 μg): 2 | No. hatched (Herpes virus [5]; 2 μg): 1 | No. living longer than controls (Herpes virus [5]; 2 μg): 3 | Total deaths, 4th day (Herpes virus [5]; 2 μg): 9 | Deaths on day 2 (Herpes virus [5]; 20 μg): 5 | Deaths on day 3 (Herpes virus [5]; 20 μg): 1 | Deaths on day 4 (Herpes virus [5]; 20 μg): 2 | No. dying 5-22 day (Herpes virus [5]; 20 μg): 1 | No. living longer than controls (Herpes virus [5]; 20 μg): 4 | Total deaths, 4th day (Herpes virus [5]; 20 μg): 8 | Deaths on day 1 (Herpes virus [5]; .00005 μg): 2 | Deaths on day 2 (Herpes virus [5]; .00005 μg): 4 | Deaths on day 3 (Herpes virus [5]; .00005 μg): 5 | No. dying 5-22 day (Herpes virus [5]; .00005 μg): 0 | No. hatched (Herpes virus [5]; .00005 μg): 1 | No. living longer than controls (Herpes virus [5]; .00005 μg): 1 | Total deaths, 4th day (Herpes virus [5]; .00005 μg): 11 | Deaths on day 1 (Herpes virus [5]; .0005 μg): 1 | Deaths on day 2 (Herpes virus [5]; .0005 μg): 5 | Deaths on day 3 (Herpes virus [5]; .0005 μg): 3 | Deaths on day 4 (Herpes virus [5]; .0005 μg): 1 | No. dying 5-22 day (Herpes virus [5]; .0005 μg): 0 | No. hatched (Herpes virus [5]; .0005 μg): 1 | No. living longer than controls (Herpes virus [5]; .0005 μg): 2 | Total deaths, 4th day (Herpes virus [5]; .0005 μg): 10 | Deaths on day 1 (Herpes virus [5]; .005 μg): 2 | Deaths on day 2 (Herpes virus [5]; .005 μg): 4 | Deaths on day 3 (Herpes virus [5]; .005 μg): 2 | Deaths on day 4 (Herpes virus [5]; .005 μg): 3 | No. dying 5-22 day (Herpes virus [5]; .005 μg): 0 | No. living longer than controls (Herpes virus [5]; .005 μg): 1 | Total deaths, 4th day (Herpes virus [5]; .005 μg): 11 | Deaths on day 1 (Herpes virus [5]; .05 μg): 2 | Deaths on day 2 (Herpes virus [5]; .05 μg): 6 | Deaths on day 3 (Herpes virus [5]; .05 μg): 3 | No. dying 5-22 day (Herpes virus [5]; .05 μg): 1 | No. living longer than controls (Herpes virus [5]; .05 μg): 1 | Total deaths, 4th day (Herpes virus [5]; .05 μg): 11 | Deaths on day 1 (Herpes virus [5]; .5 μg): 1 | Deaths on day 2 (Herpes virus [5]; .5 μg): 3 | Deaths on day 3 (Herpes virus [5]; .5 μg): 6 | Deaths on day 4 (Herpes virus [5]; .5 μg): 2 | No. dying 5-22 day (Herpes virus [5]; .5 μg): 0 | No. living longer than controls (Herpes virus [5]; .5 μg): 0 | Total deaths, 4th day (Herpes virus [5]; .5 μg): 12 | Total no. hatched (Herpes virus [5]; all doses): 5 | Total no. living longer than controls (Herpes virus [5]; all doses): 12 | No. animals surviving after 6-8 days (Influenza PR 8 virus [6]; total dose .000005 μg): 2 | Survivors (Influenza PR 8 virus [6]; total dose .000005 μg): 0 | Survivors (Influenza PR 8 virus [6]; total dose .00005 μg): 0 | No. animals surviving after 6-8 days (Influenza PR 8 virus [6]; total dose .0005 μg): 1 | Survivors (Influenza PR 8 virus [6]; total dose .0005 μg): 1 | Survivors (Influenza PR 8 virus [6]; total dose .005 μg): 0
